How the values were obtained:
SMYD2 [1] = target: T1, SMYD2 (Homo sapiens (Human), UniProt Q9NRG4); assay: Scintillation Proximity Assay (SPA) for detection of SMYD2 enzymatic inhibition; format: biochemical; conditions: read-out: IC50 [mol/l] (SPA Assay)
Experimental: 1.1 Scintillation Proximity Assay (SPA) for Detection of SMYD2 Enzymatic Inhibition
The SMYD2 full length enzyme was produced in-house by expression (with an N-terminal 6×His tag) in E. coli and purification by affinity chromatography on a Ni-NTA Sepharose column followed by a size exclusion chromatography step on a Superdex 200 16/60 column (GE Healthcare).
To this end, 100-fold concentrated compound solutions (in DMSO) were previously prepared by serial dilution (1:3.4) of 2 mM stocks in a clear low volume 384-well source microtiter plate (Greiner Bio-One), from which 50 nl of compound solutions were transferred into a white low volume test microtiter plate from the same supplier. […] The samples were then incubated for 15 min at 22° C. to allow pre-equilibration of the putative enzyme-inhibitor complexes before the start of the methylation reaction, which was initiated by the addition of 2.5 μl 2-fold concentrated solution (in assay buffer) of titrated S-Adenosyl-L-Methionine (3H-SAM, Perkin Elmer, final concentration: 60 nM) and p53 Peptide substrate (final concentration: 1.0 μM). The resulting mixture (5 μl final volume) was shortly centrifuged (2 min., 1500 rpm) and incubated at 22° C. during 30 min. Thereupon the reaction was stopped by adding 3 μl of Streptavidin PS SPA imaging beads (Perkin Elmer, final concentration of 3.12 μg/μl) and “cold” SAM (AK Scientific, 25 μM final concentration) for non-specific binding reduction. Plates containing the stopped reaction were sealed with transparent adhesive foil (Perkin Elmer), centrifuged (2 min., 1500 rpm), and further incubated for—at least—1 h at RT (or overnight at 4° C.) in order to allow the SPA signals to develop. […] IC50 values were calculated by fitting the normalized inhibition data to a 4-parameter logistic equation using the “Screener” analysis software from Genedata.

SMYD2 [2] = target: T1, SMYD2; assay: In Cell Western (ICW) cell-based assay for detection of SMYD2 methylation activity; conditions: SMYD2 overexpressing KYSE-150 cells, 72 h treatment, p53K370me1 signal; read-out: IC50 [mol/l] (ICW assay)
Text: For the detection of SMYD2 cellular methylation activity an In Cell Western (ICW) assay was established. This assay allows rapid processing of multiple samples for SMYD2 methylation derived immunofluorescence signals, with normalization to cell number via the use of the nucleic acid dye DRAQ5. […] To detect SMYD2-mediated methylation signals in cells, a customized antibody directed against mono-methylated lysine 370 on protein p53 (p53K370me1) was used.
For conducting the ICW assay 5000 SMYD2 overexpressing KYSE-150 cells/well were seeded in 96-well plates (SIGMA) and cultivated for 24 h. As a control for maximal inhibition of ectopic methylation activity, non-transfected KYSE-150 cells were used. Cells were grown in 49% RPMI 1640 with 49% Ham's F12 media supplemented with 2% heat inactivated fetal calf serum (FCS). […] After 5 washes with PBS, the fluorescence in each well was measured on an Odyssey (LI-COR) scanner at 800 nm (p53K370me1 signal; 764 nm excitation) and 700 nm (DRAQ5 signal; 683 nm excitation). Fluorescence intensity was quantified and normalized to background and DRAQ5 signals. IC50 values were calculated by fitting the normalized inhibition data to a 4-parameter logistic equation (Minimum, Maximum, IC50, Hill; Y=Max+(Min−Max)/(1+(X/IC50)Hill)) for each tested compound. […] Ci (maximal inhibition) was defined as the signal measured for non SMYD2 overexpressing KYSE150 cells.

[3] = methylation of biotinylated p53 Peptide, 3H-SAM, full length SMYD2

T1 sequence (Q9NRG4 whole entry): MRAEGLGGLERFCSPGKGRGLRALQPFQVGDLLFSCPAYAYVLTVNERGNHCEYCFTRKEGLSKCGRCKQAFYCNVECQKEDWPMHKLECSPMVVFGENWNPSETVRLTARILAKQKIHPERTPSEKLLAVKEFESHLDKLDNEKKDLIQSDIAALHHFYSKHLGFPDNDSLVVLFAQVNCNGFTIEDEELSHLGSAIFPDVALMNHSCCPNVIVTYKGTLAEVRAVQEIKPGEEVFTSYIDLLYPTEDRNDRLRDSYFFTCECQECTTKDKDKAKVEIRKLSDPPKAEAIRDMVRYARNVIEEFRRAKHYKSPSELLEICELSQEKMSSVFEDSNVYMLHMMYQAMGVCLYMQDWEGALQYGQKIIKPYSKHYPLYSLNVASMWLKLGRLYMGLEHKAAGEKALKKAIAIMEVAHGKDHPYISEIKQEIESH

SMILES: CCN(C(=O)CO)C1CN(/C(=N\C#N)Nc2ccc(Cl)c(OC(F)F)c2)N=C1c1ccc(Cl)c(Cl)c1 (racemic) [Example 11, Rac-N-[1-{N-[4-chloro-3-(difluoromethoxy)phenyl]-N′-cyanocarbamimidoyl}-3-(3,4-dichlorophenyl)-4,5-dihydro-1H-pyrazol-4-yl]-N-ethyl-2-hydroxyacetamide]
- IC50 (SMYD2 [1]; [3]): 144 nM
- IC50 (SMYD2 [2]): 376 nM

SMILES: CCN(C(=O)[C@H](N)C(C)C)C1CN(/C(=N\C#N)Nc2cccc(OC(F)F)c2)N=C1c1ccc(Cl)c(Cl)c1 (stereo partly drawn) [Example 41, N-[1-{N′-Cyano-N-[3-(difluoromethoxy)phenyl]carbamimidoyl}-3-(3,4-dichlorophenyl)-4,5-dihydro-1H-pyrazol-4-yl]-N-ethyl-D-valinamide]
- IC50 (SMYD2 [1]; [3]): 73.5 nM

SMILES: CCN(C(=O)CO)C1CN(/C(=N\C#N)Nc2cccc(OC(F)F)c2)N=C1c1ccc(Cl)cc1 (stereo not drawn) [WO 2006/072350 Example 67 more active isomer, reference compound]
- IC50 (SMYD2 [1]; comparison example versus WO 2006/072350): 548 nM

Reference: patent US10023539B2, “Aryl-cyanoguanidine compounds” (Bayer Pharma Aktiengesellschaft, priority 2014, dated 2018)
